± gives the expanded uncertainty stated by the source.
Details: Liquid; for mass density: 101.33 kPa; for vapor or sublimation pressure: Closed cell (Static) method

## C1CCC2OC2C1 (stereo unspecified) [7-oxabicyclo[4.1.0]heptane]
277.7 K
  mass density: 988.4 ± 2.5 kg/m3
289 K
  mass density: 978 ± 2.4 kg/m3
293.2 K
  mass density: 972.2 ± 2.3 kg/m3
303.2 K
  mass density: 963.8 ± 2.4 kg/m3
313.2 K
  mass density: 955 ± 2.5 kg/m3
323.2 K
  mass density: 944.8 ± 2.6 kg/m3
333.2 K
  mass density: 935.4 ± 2.8 kg/m3
343.2 K
  mass density: 925.5 ± 2.9 kg/m3
353.2 K
  mass density: 915.7 ± 3.1 kg/m3
360.91 K
  vapor or sublimation pressure: 25.5 ± 1.5 kPa
361.13 K
  vapor or sublimation pressure: 25.8 ± 1.5 kPa
363.2 K
  mass density: 903.9 ± 3.2 kg/m3
382.47 K
  vapor or sublimation pressure: 52.4 ± 1.5 kPa
383.09 K
  vapor or sublimation pressure: 53.6 ± 1.5 kPa
404.87 K
  vapor or sublimation pressure: 101.3 ± 10 kPa
405.48 K
  vapor or sublimation pressure: 103.8 ± 10 kPa
423.87 K
  vapor or sublimation pressure: 167 ± 10 kPa
443.95 K
  vapor or sublimation pressure: 268 ± 10 kPa
453.99 K
  vapor or sublimation pressure: 333 ± 10 kPa
463.99 K
  vapor or sublimation pressure: 409 ± 10 kPa
474.03 K
  vapor or sublimation pressure: 497 ± 10 kPa

Reference: the NIST ThermoML archive (doi:10.1021/je050156k)
